According to patent publication US20220380378A1 (ESSA Pharma, Inc., priority 2021, published 2022):

Legend:
[1] = Microsomal stability assay, liver microsome half-life (human); format: in vitro ADME; conditions: pH 7.4; human liver microsomes 0.5 mg/mL, 1 μM compound, 37° C.; read-out: Liver microsome T1/2 Human
Description: (§1) Microsomal Stability Assay: Microsomal stability assay is a widely used in vitro model to characterize the metabolic conversion by phase I enzymes, such as cytochrome P450 (CYP) enzymes. Since metabolism is known to be highly variable in different species, microsomal stability assay is commonly run in multiple species. Metabolic stability of testing compound can be evaluated using human, rat, mouse, or other animal liver or intestine microsomes to predict intrinsic clearance.
(§2) The assay was carried out in 96-well microtiter plates at 37° C. Reaction mixtures (25 μL) contained a final concentration of 1 μM test compound, 0.5 mg/mL liver microsomes protein, and 1 mM NADPH and/or 1 mM UDPGA (with alamethicin) in 100 mM potassium phosphate, pH 7.4 buffer with 3 mM MgCl2. The incubation was done with N=1, but duplicate incubation at each time point can be prepared if necessary. At each of the time points (for example, 0, 15, 30, and 60 minutes), 150 μL of quench solution (100% acetonitrile with 0.1% formic acid) with internal standard was transferred to each well. Besides the zero minute controls, mixtures containing the same components except the NADPH can also be prepared as the negative control. Verapamil was included as a positive control to verify assay performance. Plates were sealed, vortexed, and centrifuged at 4° C. for 15 minutes at 4000 rpm. The supernatant is transferred to fresh plates for LC/MS/MS analysis.
(§3) Summarized conditions: [Compound]=1 μM, [LM]=0.5 mg/mL, [NADPH]=1 mM and/or [UDPGA]=1 mM, Buffer=100 mM Potassium Phosphate, pH 7.4 with 3 mM MgCl2, Time=0, 15, 30, and 60 min, and Temperature=37° C.
(§4) All samples were analyzed on LC/MS/MS using an AB Sciex API 4000 instrument, coupled to a Shimadzu LC-20AD LC Pump system. Analytical samples were separated using a Waters Atlantis T3 dC18 reverse phase HPLC column (20 mm×2.1 mm) at a flow rate of 0.5 mL/min. The mobile phase consisted of 0.1% formic acid in water (solvent A) and 0.1% formic acid in 100% acetonitrile (solvent B).
(§5) The extent of metabolism is calculated as the disappearance of the test compound, compared to the 0-min time incubation. Initial rates are calculated for the compound concentration and used to determine half-life (t½). […]

[2] = Microsomal stability assay, liver microsome half-life (mouse); format: in vitro ADME; conditions: pH 7.4; mouse liver microsomes 0.5 mg/mL, 1 μM compound, 37° C.; read-out: Liver microsome T1/2 Mouse
Description: as §1, §2, §3, §4, §5

[3] = Microsomal stability assay, liver microsome half-life (rat); format: in vitro ADME; conditions: pH 7.4; rat liver microsomes 0.5 mg/mL, 1 μM compound, 37° C.; read-out: Liver microsome T1/2 Rat
Description: as §1, §2, §3, §4, §5

[4] = Microsomal stability assay, liver microsome half-life (dog); format: in vitro ADME; conditions: pH 7.4; dog liver microsomes 0.5 mg/mL, 1 μM compound, 37° C.; read-out: Liver microsome T1/2 Dog
Description: as §1, §2, §3, §4
(§6) The extent of metabolism is calculated as the disappearance of the test compound, compared to the 0-min time incubation. Initial rates are calculated for the compound concentration and used to determine half-life (t½).

[5] = Microsomal stability assay, liver microsome half-life (monkey); format: in vitro ADME; conditions: pH 7.4; monkey liver microsomes 0.5 mg/mL, 1 μM compound, 37° C.; read-out: Liver microsome T1/2 Monkey
Description: as §1, §2, §3, §4, §6

androgen receptor (AR) = molecular target: T1, androgen receptor (AR) (Homo sapiens, UniProt P10275, T878A); assay: Androgen-induced PSA (6.1 kb)-luciferase reporter assay in LNCaP cells (R1881 1 nM); format: cell-based; parameters: endogenous in cells; host or cells: LNCaP; conditions: 24 h, read-out: PSA-Luc IC50 Range
T1 sequence (P10275 1-920 T878A): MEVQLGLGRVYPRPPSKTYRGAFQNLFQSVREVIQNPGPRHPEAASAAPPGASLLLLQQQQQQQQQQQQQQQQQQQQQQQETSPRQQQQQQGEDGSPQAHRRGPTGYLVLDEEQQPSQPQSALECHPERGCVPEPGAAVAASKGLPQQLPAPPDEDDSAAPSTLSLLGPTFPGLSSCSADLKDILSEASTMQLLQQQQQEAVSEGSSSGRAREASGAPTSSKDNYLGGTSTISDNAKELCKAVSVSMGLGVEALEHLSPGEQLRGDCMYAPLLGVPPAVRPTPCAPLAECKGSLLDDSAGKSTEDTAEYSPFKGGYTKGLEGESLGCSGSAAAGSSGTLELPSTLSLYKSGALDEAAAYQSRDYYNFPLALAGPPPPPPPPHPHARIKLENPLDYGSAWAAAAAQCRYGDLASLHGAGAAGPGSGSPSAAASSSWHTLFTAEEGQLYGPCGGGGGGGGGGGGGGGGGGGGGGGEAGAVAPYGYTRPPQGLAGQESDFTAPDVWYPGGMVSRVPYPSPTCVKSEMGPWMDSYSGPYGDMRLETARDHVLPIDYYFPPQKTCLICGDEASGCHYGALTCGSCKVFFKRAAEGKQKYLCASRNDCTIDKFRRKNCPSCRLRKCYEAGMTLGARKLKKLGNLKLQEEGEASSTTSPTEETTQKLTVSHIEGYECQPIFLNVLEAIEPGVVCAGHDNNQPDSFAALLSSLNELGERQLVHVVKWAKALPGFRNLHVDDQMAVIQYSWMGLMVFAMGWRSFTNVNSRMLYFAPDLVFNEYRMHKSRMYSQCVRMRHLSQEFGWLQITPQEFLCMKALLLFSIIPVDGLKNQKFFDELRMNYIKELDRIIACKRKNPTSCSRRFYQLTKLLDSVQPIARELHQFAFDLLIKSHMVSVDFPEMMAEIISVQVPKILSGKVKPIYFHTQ
Outline: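 Compound or vehicle was added 1 h before 1 nM R1881 to LNCaP cells carrying a transiently transfected (24 h) PSA (6.1 kb)-luciferase reporter. After 24 h androgen exposure, lysate luminescence was normalized to protein and expressed versus vehicle plus R1881 for IC50.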

Row | half-life at 1 μM [1] | half-life at 1 μM [2] | half-life at 1 μM [3] | half-life at 1 μM [4] | half-life at 1 μM [5] | IC50 (androgen receptor (AR)) | SMILES
1 | > 2 h | > 2 h | 0.95 h | 0.733 h | 0.583 h | 500 to 2000 nM | CS(=O)(=O)NC1CN(CCc2ccc3c(ccn3-c3cc(Cl)c(OCCCl)c(C#N)c3)c2)C1 [Compound A126, N-(1-(2-(1-(3-chloro-4-(2-chloroethoxy)-5-cyanophenyl)-1H-indol-5-yl)ethyl)azetidin-3-yl)methanesulfonamide]
2 | > 2 h | > 2 h | 1.62 h | > 2 h | 0.95 h | 500 to 2000 nM | CC(C)(c1ccc(OCC23CC(NS(C)(=O)=O)(C2)C3)cc1)c1cc(Cl)c(OCCCl)c(C#N)c1 [Compound A132, N-(3-((4-(2-(3-chloro-4-(2-chloroethoxy)-5-cyanophenyl)propan-2-yl)phenoxy)methyl)bicyclo[1.1.1]pentan-1-yl)methanesulfonamide]
3 | > 2 h | 1.97 h | > 2 h | > 2 h | 0.733 h | 500 to 2000 nM | CS(=O)(=O)N[C@H]1C[C@H](COc2ccc3c(ccn3-c3cc(Cl)c(OCCCl)c(C#N)c3)c2)C1 [Compound A135]
4 | > 2 h | > 2 h | > 2 h | > 2 h | > 2 h | < 500 nM | CC(C)(c1ccc(-c2ccc3nc(NS(C)(=O)=O)nc(N)c3c2)cc1)c1cc(Cl)c(OCCCl)c(C#N)c1 [Compound A173]
5 | 1.97 h | > 2 h | > 2 h | 1.48 h | > 2 h | < 500 nM | CC(C)(c1ccc(-c2cnc3nc(NS(C)(=O)=O)ccc3c2)cc1)c1cc(Cl)c(OCCCl)c(C#N)c1 [Compound A194]
6 | 1.88 h | > 2 h | > 2 h | > 2 h | 0.65 h | 500 to 2000 nM | CS(=O)(=O)NC1CCN(Cc2ccc3c(ccn3-c3cc(Cl)c(OCCCl)c(C#N)c3)c2)CC1(F)F (stereo not drawn) [Compound A239]
7 | 1.48 h | > 2 h | 1.08 h | 1.32 h | 1.3 h | 500 to 2000 nM | CS(=O)(=O)NC12CC(COc3ccc4c(c3)CCC4c3cc(Cl)c(OCCCl)c(C#N)c3)(C1)C2 (stereo not drawn) [Compound A246]
8 | > 2 h | > 2 h | > 2 h | > 2 h | > 2 h | 500 to 2000 nM | CC(C)(c1ccc(-c2ccc3nc(NS(C)(=O)=O)oc3c2)cc1)c1cc(Cl)c(OCCCl)c(C#N)c1 [Compound A254]
9 | > 2 h | > 2 h | > 2 h | > 2 h | 0.8 h | 500 to 2000 nM | C[C@@H](Oc1ccc(C(C)(C)c2cc(Cl)c(OCCCl)c(C#N)c2)cc1)C12CC(NS(C)(=O)=O)(C1)C2 [Compound A264]

The next lines start with the compound.

Row | SMILES | half-life at 1 μM [1] | half-life at 1 μM [2] | half-life at 1 μM [3] | half-life at 1 μM [4] | half-life at 1 μM [5] | IC50 (androgen receptor (AR))
10 | CC(c1cc(Cl)c(OCCCl)c(C#N)c1)n1cc(-c2ccc3nc(NS(C)(=O)=O)ncc3c2)cn1 (stereo not drawn) [Compound A141] | > 2 h | > 2 h | > 2 h | > 2 h | 1.1 h | > 2000 nM
11 | CS(=O)(=O)Nc1ncc(Cn2ncc3c(-c4cc(Cl)c(OCCCl)c(C#N)c4)cccc32)cn1 [Compound A144] | > 2 h | > 2 h | > 2 h | > 2 h | > 2 h | 500 to 2000 nM
12 | CC(C)(c1ccc(OCc2ccnc(NS(C)(=O)=O)n2)cc1)c1ccc(OCC(O)CCl)cc1 (stereo not drawn) [Compound A150, N-(4-((4-(2-(4-(3-chloro-2-hydroxypropoxy)phenyl)propan-2-yl)phenoxy)methyl)pyrimidin-2-yl)methanesulfonamide] | > 2 h | > 2 h | > 2 h | > 2 h | > 2 h | < 500 nM
13 | CS(=O)(=O)NC1CCN(Cc2ccc3c(ccn3-c3cc(Cl)c(OCCCl)c(C#N)c3)c2)CC1 [Compound A169] | > 2 h | > 2 h | > 2 h | > 2 h | > 2 h | > 2000 nM
14 | CC(Oc1ccc2c(ccn2-c2cc(Cl)c(OCCCl)c(C#N)c2)c1)C12CC(NS(C)(=O)=O)(C1)C2 (stereo not drawn) [Compound A180] | > 2 h | > 2 h | > 2 h | 0.967 h | 0.75 h | 500 to 2000 nM
15 | CS(=O)(=O)NC1CCN(CCc2ccc3c(ccn3-c3cc(Cl)c(OCCCl)c(C#N)c3)c2)CC1 [Compound A187] | > 2 h | > 2 h | > 2 h | > 2 h | 1.47 h | 500 to 2000 nM
16 | CC(C)(c1ccc(-c2ccc3nc(NS(C)(=O)=O)ccc3n2)cc1)c1cc(Cl)c(OCCCl)c(C#N)c1 [Compound A191] | > 2 h | > 2 h | > 2 h | > 2 h | > 2 h | < 500 nM
17 | CC(C)(c1ccc(-c2cnc3c(c2)CCC3NS(C)(=O)=O)cc1)c1cc(Cl)c(OCCCl)c(C#N)c1 (stereo not drawn) [Compound A217] | > 2 h | > 2 h | 0.433 h | 0.833 h | 0.933 h | 500 to 2000 nM
18 | CC(C)(c1ccc(OCc2ccnc(NS(C)(=O)=O)n2)cc1)c1cc(F)c(N2CCOCC2)c(C#N)c1 [Compound A262] | > 2 h | > 2 h | 1.63 h | > 2 h | 0.85 h | 500 to 2000 nM
